Experimental data from patent EP2573088A1, “Pyrano[3,2-c]benzopyran-6(2h)-one derivatives and uses thereof” (Prous Institute for Biomedical Research, S.A., priority 2011, dated 2013).

Experiments:
[1] = system: fed mice; experiment: Blood glucose after i.p. glucose challenge, fed mice; assay type: in vivo
Protocol: (§1) Male C57BL/6 mice weighing 25 ± 3 g were provided by Harlan. Space allocation for five animals was 29 x 18 x 13 cm. All animals were maintained in a controlled temperature (21-23 °C) and humidity (50-70%) environment on a 12-hour light/dark cycle for 7 days in the animal facilities. Free access to standard chow for mice and reverse osmosis water were given. All aspects of this work, including housing, experimentation and disposal of animals, were performed in general accordance with the Guide for the Care and Use of Laboratory Animals.
(§2) Then, the blood glucose concentrations were measured at 15, 30, 60, 90, and 120 minutes after the glucose injection (Glucometer and Reactive Strips Accu-chek Aviva, Roche) [Zhang, W. et al. Pharmacol Res 2011, 63: 284-93]. Free access to food and water was maintained throughout the study. Under fasting conditions, mice were deprived of food 4 hours before and during the experiment and the experimental protocol was followed as detailed above.

[2] = system: fasted mice; experiment: Blood glucose after i.p. glucose challenge, fasted mice; assay type: in vivo; conditions: oral
Protocol: as §1, §2

[3] = Maximum tolerated dose after single oral administration; conditions: mouse, in vivo, mice, observed up to 72 hours
Protocol: The maximum tolerated dose (MTD) was assessed in mice after single oral administration of high doses of Example 1 of 1 g/kg, 500 mg/kg, and 100 mg/kg, and the development of acute toxic symptoms (mortality, convulsions, tremors, muscle relaxation, sedation, etc.) and autonomic effects (diarrhea, salivation, lacrimation, vasodilation, piloerection, etc.) was observed during the first hour. The animals were then observed again for mortality at 3, 24, 48, and 72 hours. The mice were sacrificed if they lost more than 20% of their body weight or if there were other signs of significant toxicity. The MTD obtained for Example 1 in the above experimental conditions was 1 g/kg.

[4] = system: human platelet-rich plasma; experiment: Platelet aggregation inhibition after induction by ADP, arachidonic acid or collagen; assay type: cell-based; conditions: different concentrations
Protocol: Platelet aggregation inhibition was evaluated after the induction of aggregation by ADP, arachidonic acid or collagen in human platelet-rich plasma [Bertele, V. et al. Science 1983, 220(4596): 517-9; Knöfler, R. et al. Thromb Res 1995, 77(1): 69-78]. […] Platelet function was additionally tested under rheological conditions in human whole blood using a platelet function test device, PFA-100 [Frossard, M. et al. Circulation 2004, 110(11): 1392-7; Hennekens, C.H. et al. Circulation 2004, 110(12): 1706-8]. An increase (26%-30%) in aggregation time in the presence of collagen-epinephrine was noted, indicating platelet aggregation-inhibitory activity for compounds in examples 1 to 12 at 1 µM concentration under rheological conditions.

[5] = system: Syrian hamster embryo (SHE) cell, BALB/c 3T3, and CH310T1/2; experiment: Cell transformation assays (CTAs), carcinogenic assessment; assay type: cell-based; conditions: CTA assays, compared with structurally related compounds with carcinogenic potential
From the text: Carcinogenic potential may arise from a direct genotoxic effect or nongenotoxic effects. Epigenetic factors may contribute to tumor cell proliferation by routes other than a direct interaction with DNA. In that case, xenobiotics may act as cancer promoters in species other than those employed in preclinical drug development. Cell transformation assays (CTAs), including the main in vitro CTAs --the Syrian hamster embryo (SHE) cell, BALB/c 3T3, and CH310T1/2 assays-- are experimental tools reviewed by the OECD [Environment, Health and Safety Publications, Series on Testing and Assessment nº 31. Detailed review paper on cell transformation assays for detection of chemical carcinogens. November 28, 2006].

[6] = system: streptozotocin-induced diabetic mice; experiment: Blood glucose in mice with streptozotocin-induced diabetes; assay type: in vivo; conditions: for reduction in blood glucose concentrations when compared to basal values: range over the experimental time points
Protocol: as §1
In mice with streptozotocin-induced diabetes [Tokunaga, H. et al. Eur J Pharmacol 1983, 87(2-3): 237-43], diabetes was induced with a […] i.p. injection of streptozotocin (Sigma) 50 mg/kg body weight, freshly dissolved in NaCl 0.9% during 5 consecutive days. After 4 weeks, those mice (80%) with basal glucose concentrations under fasting (4 hours) conditions above 220 mg/dL were included in the assay. The test substance, positive and negative controls were administered by the p.o. route 30 minutes before measurement of the blood glucose concentrations at 0, 15, 30, 60, 90, and 120 minutes. Free access to water was maintained throughout the study.

Row | SMILES | decrease in blood glucose concentrations ([1]; fed, positive control, dose not given, 90 minutes after glucose challenge) [%] | decrease in blood glucose concentrations ([1]; fed, positive control, dose not given, 120 minutes after glucose challenge) [%] | decrease in blood glucose concentrations ([2]; fasted mice, after i.p. glucose challenge (1 g/kg)) | hypoglycemic activity ([2]; fasted, 0.3 mg/kg) | decrease in blood glucose concentrations ([1]; fed mice, oral, after i.p. glucose challenge (1 g/kg)) | reduction in blood glucose concentrations when compared to basal values ([1]; fed, single oral dose 3 mg/kg, 90 minutes after glucose challenge) [%] | reduction in blood glucose concentrations when compared to basal values ([1]; fed, single oral dose 3 mg/kg, 120 minutes after glucose challenge) [%] | reduction in blood glucose concentrations when compared to basal values ([1]; fed, single oral dose 30 mg/kg, 90 minutes after glucose challenge) [%] | reduction in blood glucose concentrations when compared to basal values ([1]; fed, single oral dose 30 mg/kg, 120 minutes after glucose challenge) [%] | reduction in blood glucose concentrations when compared to basal values ([1]; fed, single oral dose 300 mg/kg, 90 minutes after glucose challenge) [%] | reduction in blood glucose concentrations when compared to basal values ([1]; fed, single oral dose 300 mg/kg, 120 minutes after glucose challenge) [%] | MTD at 72 h [3] [mg/kg] | inhibition of platelet aggregation [4] | carcinogenic potential [5] | hypoglycemic effect ([6]; 0.1 mg/kg) | reduction in blood glucose concentrations when compared to basal values ([6]; 3 mg/kg oral) | reduction in blood glucose concentrations when compared to basal values ([6]; 30 mg/kg oral) | reduction in blood glucose concentrations when compared to basal values ([6]; 300 mg/kg oral) | decrease in blood glucose concentrations ([6]; mice with streptozotocin-induced diabetes, oral)
1 | CCCCNC(=O)NS(=O)(=O)c1ccc(C)cc1 [Tolbutamide, reference compound] | 7.76 | 3.22 |  |  |  |  |  |  |  |  |  |  |  |  |  |  |  |  | 
2 | CCc1ccc(Cc2ccc3c(c2)[C@@H]2O[C@H](CO)[C@@H](O)[C@H](O)[C@H]2OC3=O)cc1 [Example 1, (2R,3S,4S,4aR,10bS)-9-(4-Ethylbenzyl)-3,4-dihydroxy-2-(hydroxymethyl)-3,4,4a,10b-tetrahydropyrano[3,2-c][2]benzopyran-6(2H)-one] |  |  | decrease in blood glucose concentrations | hypoglycemic activity | decrease in blood glucose concentrations | 12.01 | 9.63 | 6.04 | 4.71 | 2.52 | 10.2 | 1000 | inhibition of platelet aggregation | no carcinogenic potential | No relevant hypoglycemic effect | 7-22% | 7-26% | 18-42% | decrease in blood glucose concentrations
